Calls of active or inactive are those of the source. The calls are words filed in the database; no cut-off is given here.
How the values were obtained:
[1] = tested on: U-87 MG; assay: Cytotoxicity against human U87MG cells assessed as cell viability after 48 hrs by Alamar Blue assay; type: functional, cell-based, U-87MG ATCC
[2] = Cytotoxicity against human GBM6 cells assessed as cell viability after 48 hrs by Alamar Blue assay; type: functional, cell-based; conditions: GBM6, 48 h
[3] = Cytotoxicity against […] GL261-GFP-Luc cells assessed as cell viability after 48 hrs by Alamar Blue assay; type: functional, cell-based; conditions: Mus musculus, GL261, 48 h
[4] = Drug uptake in CD1 mouse plasma at 100 mg/kg, po after 1 hr by LC-MS/MS analysis; type: ADME, organism-based
[5] = Drug uptake in CD1 mouse perfused brain at 100 mg/kg, po after 1 hr by LC-MS/MS analysis; type: ADME, organism-based; conditions: read-out: Drug uptake
[6] = Ratio of drug level in brain to plasma in CD1 mouse at 100 mg/kg, po after 1 hr by LC-MS/MS analysis; type: ADME, organism-based; conditions: read-out: BPR
[7] = tested on: Plasma; assay: Drug uptake in CD1 mouse plasma assessed as elimination product parthenolide at 100 mg/kg, po after 1 hr by LC-MS/MS analysis; type: ADME, organism-based; conditions: in vivo
[8] = tested on: Brain; assay: Drug uptake in CD1 mouse perfused brain assessed as elimination product parthenolide at 100 mg/kg, po after 1 hr by LC-MS/MS analysis; type: ADME, organism-based; conditions: in vivo
[9] = Drug uptake in CD1 mouse plasma at 100 mg/kg, po after 4 hrs by LC-MS/MS analysis; type: ADME, organism-based
[10] = Drug uptake in CD1 mouse perfused brain at 100 mg/kg, po after 4 hrs by LC-MS/MS analysis; type: ADME, organism-based; conditions: read-out: Drug uptake
[11] = Ratio of drug level in brain to plasma in CD1 mouse at 100 mg/kg, po after 4 hrs by LC-MS/MS analysis; type: ADME, organism-based; conditions: read-out: BPR
[12] = tested on: Plasma; assay: Drug uptake in CD1 mouse plasma assessed as elimination product parthenolide at 100 mg/kg, po after 4 hrs by LC-MS/MS analysis; type: ADME, organism-based; conditions: in vivo
[13] = tested on: Brain; assay: Drug uptake in CD1 mouse perfused brain assessed as elimination product parthenolide at 100 mg/kg, po after 4 hrs by LC-MS/MS analysis; type: ADME, organism-based; conditions: in vivo
[14] = tested on: Nucleic Acid; assay: Ratio of drug level in brain to plasma in CD1 mouse assessed as elimination product parthenolide at 100 mg/kg, po after 4 hrs by LC-MS/MS analysis; type: ADME, organism-based
[15] = Half life in mouse serum; type: ADME, cell-free
[16] = Ratio of drug level in brain to plasma in Wistar rat at 100 mg/kg, po after 30 mins by UPLC-MS/MS analysis; type: ADME, organism-based; conditions: read-out: BPR
[17] = Ratio of drug level in brain to plasma in Wistar rat at 100 mg/kg, po after 3 hrs by UPLC-MS/MS analysis; type: ADME, organism-based; conditions: read-out: BPR
[18] = tested on: Mus musculus; assay: Toxicity in C57BL/6 mouse assessed as WBC count at 100 mg/kg, po formulated in HP-beta CD; type: organism-based; conditions: in vivo
[19] = tested on: Mus musculus; assay: Toxicity in C57BL/6 mouse assessed as RBC count at 100 mg/kg, po formulated in HP-beta CD; type: organism-based; conditions: in vivo
[20] = tested on: Mus musculus; assay: Toxicity in C57BL/6 mouse assessed as hemoglobin level at 100 mg/kg, po formulated in HP-beta CD; type: organism-based; conditions: in vivo
[21] = tested on: Mus musculus; assay: Toxicity in C57BL/6 mouse assessed as platelet count at 100 mg/kg, po formulated in HP-beta CD; type: organism-based; conditions: in vivo
[22] = tested on: GL261; assay: Antitumor activity in mouse GL261-GFP-Luc cells allografted in C57BL/6J mouse assessed as delay in tumor growth at 100 mg/kg, po relative to control; type: functional, organism-based
[23] = tested on: GL261; assay: Antitumor activity in mouse GL261-GFP-Luc cells allografted in C57BL/6J mouse assessed as increase in mouse survival time at 100 mg/kg, po relative to control; type: functional, organism-based

## C/C1=C\CC[C@@]2(C)O[C@H]2[C@H]2OC(=O)[C@@H](CN(C)C)[C@@H]2CC1
[1]
  IC50: 8.8 µM
[2]
  IC50: 3.5 µM
[3]
  IC50: 6.9 µM
[4]
  concentration at 1 h: 2960 ng/mL
[5]
  concentration at 1 h: 6250 ng/g
[6]
  Kp at 1 h: 2.1
[7]
  Cp: 2142 ng/mL
[8]
  Drug uptake: 2402 ng/g
[9]
  concentration at 4 h: 115 ng/mL
[10]
  concentration at 4 h: 342 ng/g
[11]
  Kp at 4 h: 3
[12]
  Cp: 211 ng/mL
[13]
  Drug uptake: 113 ng/g
[14]
  BPR: 0.5
[15]
  half-life: 37.8 min
[16]
  Kp at 0.5 h: 1.84
[17]
  Kp at 3 h: 1.91
[18]
  Activity: Non-toxic
[19]
  Activity: Non-toxic
[20]
  Activity: Non-toxic
[21]
  Activity: Non-toxic
[22]
  Activity: Active
[23]
  Activity: Active

## C=C1C(=O)O[C@@H]2C3O[C@]3(C)CC/C=C(\C)CC[C@@H]12 (stereo partly specified)
[1]
  IC50: 8.8 µM
[2]
  IC50: 3.4 µM
[3]
  IC50: 7.6 µM

— ChEMBL document CHEMBL3580593, “Parthenolide prodrug LC-1 slows growth of intracranial glioma” (Bioorg Med Chem Lett, 2015)
